Data on 15 compounds can be found in patent publication US8987195B2 (priority 2012, dated 2015).

One test deals with HCV genotype 1b replicon. Kind of test: HCV replicon assay, genotype 1b replicon EC50. It counts as cell-based, Hepatitis C virus. The note with it: genotype 1b replicon, read-out: EC50 [gt-1b]. The method, then: Measuring Compound Inhibitory Potency (Genotype 1b Replicon EC50 (nM))
Measurement of inhibition by compounds was performed using the HCV replicon system. Several different replicons encoding different HCV genotypes or mutations were used. In addition, potency measurements were made using different formats of the replicon assay, including different ways of measurements and different plating formats. See Jan M. Vrolijk et al., A replicons-based bioassay for the measurement of interferons in patients with chronic hepatitis C, 110 J. VIROLOGICAL METHODS 201 (2003); Steven S. Carroll et al., Inhibition of Hepatitis C Virus RNA Replication by 2′-Modified Nucleoside Analogs, 278(14) J. BIOLOGICAL CHEMISTRY 11979 (2003). However, the underlying principles are common to all of these determinations, and are outlined below.
Stable neomycin phosphotransferase encoding replicon-harboring cell lines were used, so all cell lines were maintained under G418 selection prior to the assay. In some cases the cell lines encoded a luciferase:Neo^r fusion and could be assayed either directly by determination of RNA copy number, or indirectly through measurement of the luciferase activity.
To initiate an assay, replicon cells were plated in the presence of a dilution series of test compound in the absence of G418. Typically, the assays were performed in a 96-well plate format for manual operation, or a 384 well plate in an automated assay. Replicon cells and compound were incubated for 24-48 hours, depending on the assay. At the end of the assay, cells are washed free of media and compound and then lysed. For direct quantitation, RNA levels were measured by ^32P-probe hybridization and protection, or in a TAQMAN based assay and normalized to cellular cyclophilin A RNA levels. In some cases, luciferase activity was measured using a conventional luciferase assay. In all cases EC50 determinations were calculated as a percent of a DMSO control by fitting the data to a four parameter fit function.
(Replicon systems follow genome replication, usually without infectious particles.)

Test [1] concerns the target HCV NS3/4A protease genotype 1b (Hepatitis C virus genotype 1b, UniProt P26663). Kind of test: HCV NS3/4A protease time-resolved fluorescence (TRF) assay, Ki against genotype 1b. It counts as biochemical. The following applies: IC50 [gt-1b] (nM), NS3/4A genotype 1b, enzyme 0.2 nM. In outline: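 Time-resolved fluorescence readout of NS3/4A cleavage of 25 nM europium-labelled peptide over 2.5 h at room temperature, enzyme levels set for signal/background 10–30 (0.2, 0.4, 0.025 nM for 1b, A156T, 3a). Ki by IC50=Ki(1+[S]/KM).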

Where two headings read alike, the source gives them in different places.

As a reminder, the EC50 is the concentration needed to bring the measured effect to its halfway point. One may read the IC50 as the concentration needed to halve the response being measured.

`Cc1nc2ccccc2c2c1O[C@]1(CC2)C[C@H]2C(=O)N[C@]3(C(=O)NS(=O)(=O)C4(C)CC4)C[C@H]3/C=C\CCCCC[C@H](NC(=O)OC(CN(C)S(C)(=O)=O)C(C)(C)C)C(=O)N2C1` (single isomer, unassigned) [Example 259]: in the test with HCV genotype 1b replicon (Hepatitis C virus), the EC50 came out at 24 nM. This compound yielded an IC50 in test [1] of 0.007 nM.

On to `Cc1nc2ccccc2c2c1O[C@]1(CC2)C[C@H]2C(=O)N[C@]3(C(=O)NS(=O)(=O)C4(C)CC4)C[C@H]3/C=C\CCCCC[C@H](NC(=O)OC(CN(C)S(C)(=O)=O)C(C)(C)C)C(=O)N2C1` (single isomer, unassigned) [Example 262], for which, in the test on HCV genotype 1b replicon, the EC50 was determined as 38.9 nM. The compound also showed an IC50 in test [1] of 0.037 nM.

For the compound `COc1ccc2c3c(c(C4CC4)nc2c1)O[C@]1(CC3)C[C@H]2C(=O)N[C@]3(C(=O)NS(=O)(=O)C4(C)CC4)C[C@H]3/C=C\CCCCC[C@H](NC(=O)CC(C)(C)C)C(=O)N2C1` (single isomer, unassigned) [Example 279], the EC50 in the test on HCV genotype 1b replicon (Hepatitis C virus, HCOOH salt) came out at 22.3 nM. Moreover, the IC50 in test [1] (HCOOH salt) was 0.051 nM. For `CCc1ccc2nc(C)c3c(c2c1)C(F)C[C@]1(C[C@H]2C(=O)N[C@]4(C(=O)NS(=O)(=O)C5(C)CC5)C[C@H]4/C=C\CCCCC[C@H](NC(=O)OC(C)(C)C)C(=O)N2C1)O3` (single isomer, unassigned) [Example 315], in the test on HCV genotype 1b replicon, the EC50 was found to be 294 nM. For the same compound, in test [1], half-maximal inhibition (IC50) required 1.29 nM. The like results for `CCc1ccc2nc(C)c3c(c2c1)C(F)C[C@]1(C[C@H]2C(=O)N[C@]4(C(=O)NS(=O)(=O)C5(C)CC5)C[C@H]4/C=C\CCCCC[C@H](NC(=O)OC(C)(C)C)C(=O)N2C1)O3` (single isomer, unassigned) [Example 316] were, in that order, 2.63 nM and 0.008 nM. The like results for `CCc1ccc2nc(C)c3c(c2c1)C(F)C[C@]1(C[C@H]2C(=O)N[C@]4(C(=O)NS(=O)(=O)C5(C)CC5)C[C@H]4/C=C\CCCCC[C@H](NC(=O)OC(C)(C)C(F)(F)F)C(=O)N2C1)O3` (single isomer, unassigned) [Example 346] were, in that order, 4.23 nM and 0.012 nM.

For the compound `CCc1ccc2nc(C)c3c(c2c1)C(F)C[C@]1(C[C@H]2C(=O)N[C@]4(C(=O)NS(=O)(=O)C5(C)CC5)C[C@H]4/C=C\CCCCC[C@H](NC(=O)OC(C)(C)C(F)(F)F)C(=O)N2C1)O3` (single isomer, unassigned) [Example 347], in the test with HCV genotype 1b replicon, the EC50 was found to be 3060 nM. The compound further had an IC50 in test [1] of 0.981 nM. As for `Cc1nc2ccc(OC(F)(F)F)cc2c2c1O[C@]1(CC2)C[C@H]2C(=O)N[C@]3(C(=O)NS(=O)(=O)C4(C)CC4)C[C@H]3/C=C\CCCCC[C@H](NC(=O)OC(C)(C)C)C(=O)N2C1` [Example 1, tert-butyl (2R,6S,13aS,14aR,16aS,Z)-5′-methyl-14a-(1-methylcyclopropylsulfonylcarbamoyl)-5,16-dioxo-9′-(trifluoromethoxy)-1′,2′,3,5,6,7,8,9,10,11,13a,14,14a,15, 16,16a-hexadecahydro-1H-spiro[cyclopropa[e]pyrrolo[1,2-a][1,4]diazacyclopentadecine-2,3′-pyrano[2,3-c]quinoline]-6-ylcarbamate], the EC50 in the test on HCV genotype 1b replicon (Hepatitis C virus) worked out at 1.47 nM. In test [1], half-maximal inhibition (IC50) was put at 0.013 nM. The like results for `COc1ccc2nc(C(C)C)c3c(c2c1)CC[C@]1(C[C@H]2C(=O)N[C@]4(C(=O)NS(=O)(=O)C5(C)CC5)C[C@H]4/C=C\CCCCC[C@H](NC(=O)OC(C)(C)C)C(=O)N2C1)O3` [Example 2, tert-Butyl (2R,6S,13aS,14aR,16aS,Z)-5′-isopropyl-9′-methoxy-14a-(1-methylcyclopropylsulfonylcarbamoyl)-5,16-dioxo-1′,2′,3,5,6,7,8,9,10,11,13a,14,14a,15,16,16a-hexadecahydro-1H-spiro[cyclopropa[e]pyrrolo[1,2-a][1,4]diazacyclopentadecine-2,3′-pyrano[2,3-c]quinoline]-6-ylcarbamate] were, in that order, 1.19 nM and 0.012 nM.

For the compound `CC1(S(=O)(=O)NC(=O)[C@@]23C[C@H]2/C=C\CCCCC[C@H](NC(=O)OC2CCCC2)C(=O)N2C[C@@]4(CCc5c(c(-c6cccc(F)c6)nc6ccccc56)O4)C[C@H]2C(=O)N3)CC1` [Example 81, cyclopentyl [(2R,6S,12Z,13aS,14aR,16aS)-5′-(3-fluorophenyl)-14a-{[(1-methylcyclopropyl)sulfonyl]carbamoyl}-5,16-dioxo-1,1′,2′,5,6,7,8,9,10,11,13a,14,14a,15,16,16a-hexadecahydrospiro[cyclopropa[e]pyrrolo[1,2-a][1,4]diazacyclopentadecine-2,3′-pyrano[2,3-c]quinolin]-6-yl]carbamate], the EC50 in the test on HCV genotype 1b replicon (Hepatitis C virus) came to 1.33 nM.

Turning to `CC1(S(=O)(=O)NC(=O)[C@@]23C[C@H]2/C=C\CCCCC[C@H](NC(=O)NC2CCCC2)C(=O)N2C[C@@]4(CCc5c(c(-c6cccc(F)c6)nc6ccccc56)O4)C[C@H]2C(=O)N3)CC1` [Example 82, (2R,6S,12Z,13aS,14aR,16aS)-6-[(cyclopentylcarbamoyl)amino]-5′-(3-fluorophenyl)-N-[(1-methylcyclopropyl)sulfonyl]-5,16-dioxo-1,1′,2′,6,7,8,9,10,11,13a,14,15,16,16a-tetradecahydrospiro[cyclopropa[e]pyrrolo[1,2-a][1,4]diazacyclopentadecine-2,3′-pyrano[2,3-c]quinoline]-14a(5H)-carboxamide], in the test with HCV genotype 1b replicon (Hepatitis C virus), the EC50 was 4.25 nM.

`CC1(S(=O)(=O)NC(=O)[C@@]23C[C@H]2/C=C\CCCCC[C@H](NC(=O)NC2CCCCC2)C(=O)N2C[C@@]4(CCc5c(c(-c6cccc(F)c6)nc6ccccc56)O4)C[C@H]2C(=O)N3)CC1` [Example 83, (2R,6S,12Z,13aS,14aR,16aS)-6-[(cyclohexylcarbamoyl)amino]-5′-(3-fluorophenyl)-N-[(1-methylcyclopropyl)sulfonyl]-5,16-dioxo-1,1′,2′,6,7,8,9,10,11,13a,14,15,16,16a-tetradecahydrospiro[cyclopropa[e]pyrrolo[1,2-a][1,4]diazacyclopentadecine-2,3′-pyrano[2,3-c]quinoline]-14a(5H)-carboxamide]: the EC50 with HCV genotype 1b replicon (Hepatitis C virus) came to 3.71 nM. In the case of `Cc1nc2ccccc2c2c1O[C@]1(CC2)C[C@H]2C(=O)N[C@]3(C(=O)NS(=O)(=O)C4(C)CC4)C[C@H]3/C=C\CCCCC[C@H](NC(=O)CC(F)(F)F)C(=O)N2C1` [Example 84, (2R,6S,12Z,13aS,14aR,16aS)-5′-methyl-N-[(1-methylcyclopropyl)sulfonyl]-5,16-dioxo-6-[(3,3,3-trifluoropropanoyl)amino]-1,1′,2′,6,7,8,9,10,11,13a,14,15,16,16a-tetradecahydrospiro[cyclopropa[e]pyrrolo[1,2-a][1,4]diazacyclopentadecine-2,3′-pyrano[2,3-c]quinoline]-14a(5H)-carboxamide], the EC50 in the test with HCV genotype 1b replicon (Hepatitis C virus) came out at 7.79 nM.

Turning to `Cc1ccc2nc(C)c3c(c2c1)CC[C@]1(C[C@H]2C(=O)N[C@]4(C(=O)O)C[C@H]4/C=C\CCCCC[C@H](NC(=O)OC(C)(C)C)C(=O)N2C1)O3` [Example 86, (2R,6S,12Z,13aS,14aR,16aS)-6-[(tert-butoxycarbonyl)amino]-5′,9′-dimethyl-5,16-dioxo-1,1′,2′,6,7,8,9,10,11,13a,14,15,16,16a-tetradecahydrospiro[cyclopropa[e]pyrrolo[1,2-a][1,4]diazacyclopentadecine-2,3′-pyrano[2,3-c]quinoline]-14a(5H)-carboxylic acid], the EC50 in the test with HCV genotype 1b replicon (Hepatitis C virus) was > 100 nM. On to `CC(C)OC(=O)N[C@H]1CCCCC/C=C\[C@@H]2C[C@@]2(C(=O)NS(=O)(=O)C2(C)CC2)NC(=O)[C@@H]2C[C@]3(CCc4c(c(-c5cccc(F)c5)nc5ccccc45)O3)CN2C1=O` [Example 89, propan-2-yl [(2R,6S,12Z,13aS,14aR,16aS)-5′-(3-fluorophenyl)-14a-{[(1-methylcyclopropyl)sulfonyl]carbamoyl}-5,16-dioxo-1,1′,2′,5,6,7,8,9,10,11,13a,14,14a,15,16,16a-hexadecahydrospiro[cyclopropa[e]pyrrolo[1,2-a][1,4]diazacyclopentadecine-2,3′-pyrano[2,3-c]quinolin]-6-yl]carbamate], for which the EC50 in the test on HCV genotype 1b replicon (Hepatitis C virus) came out at 2.85 nM.
